Data from patent publication US10597388B2, “Pyridazinone herbicides” (FMC CORPORATION, priority 2014, dated 2020).
Where two headings read alike, the source gives them in different places.

Tests used:
[1] = test system: barnyardgrass (Echinochloa crus-galli); assay: Test A greenhouse herbicide test, pre- and postemergence; format: in vivo; conditions: Echinochloa crus-galli, 240 h, 1000 g ai/ha, 0 to 100 scale
Procedure, shortened: (§1)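 Seeds in loam–sand blend received a preemergence directed soil spray; plants at 2–10 cm, one- to two-leaf stage, received postemergence sprays. Compounds in a non-phytotoxic solvent with surfactant. After about 10 d in a greenhouse, injury rated visually versus untreated controls on a 0–100 scale (100 = complete control).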

corn (Zea mays) = assay: as above; format: in vivo; conditions: Zea mays, 240 h, 1000 g ai/ha, 0 to 100 scale
Procedure, shortened: as §1

[2] = test system: crabgrass, large (large crabgrass, Digitaria sanguinalis); assay: as above; format: in vivo; conditions: 240 h, 1000 g ai/ha, 0 to 100 scale
Procedure, shortened: as §1

[3] = test system: foxtail, giant (giant foxtail, Setaria faberii); assay: as above; format: in vivo; conditions: Setaria faberi, 240 h, 1000 g ai/ha, 0 to 100 scale
Procedure, shortened: as §1

[4] = test system: momingglory (Ipomoea spp.); assay: as above; format: in vivo; conditions: 240 h, 1000 g ai/ha, 0 to 100 scale
Procedure, shortened: as §1

[5] = test system: pigweed (Amaranthus retroflexus); assay: as above; format: in vivo; conditions: Amaranthus retroflexus, 240 h, 1000 g ai/ha, 0 to 100 scale
Procedure, shortened: as §1

[6] = test system: velvetleaf (Abutilon theophrasti); assay: as above; format: in vivo; conditions: 240 h, 1000 g ai/ha, 0 to 100 scale
Procedure, shortened: as §1

[7] = test system: wheat (Triticum aestivum); assay: as above; format: in vivo; conditions: Triticum aestivum, 240 h, 1000 g ai/ha, 0 to 100 scale
Procedure, shortened: as §1

[8] = test system: barnyardgrass (Echinochloa crus-galli); assay: Test B flooded paddy test; format: in vivo; conditions: Echinochloa crus-galli, 360 h; 250 g ai/ha, Flood; visual rating on scale of 0 to 100 where 0 is no effect and 100 is complete control; 13 to 15 d after treatment; read-out: Plant response rating, Barnyardgrass
Procedure, shortened: (§2)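 Plants grown to the 2-leaf stage. At treatment, pots were flooded to 3 cm above the soil, compound was applied directly to the paddy water, and that depth was held throughout. After 13 to 15 d in the greenhouse, response was rated visually against controls on a 0 (no effect) to 100 (complete control) scale.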

[9] = test system: ducksalad (Heteranthera limosa); assay: Test B flooded paddy test; format: in vivo; conditions: Heteranthera limosa, 360 h; 250 g ai/ha, Flood; visual rating on scale of 0 to 100 where 0 is no effect and 100 is complete control; 13 to 15 d after treatment; read-out: Plant response rating, Ducksalad
Procedure, shortened: as §2

rice (Oryza sativa) = assay: Test B flooded paddy test; format: in vivo; conditions: Oryza sativa, 360 h; 250 g ai/ha, Flood; visual rating on scale of 0 to 100 where 0 is no effect and 100 is complete control; 13 to 15 d after treatment; read-out: Plant response rating, Rice
Procedure, shortened: as §2

[10] = test system: sedge, umbrella (small-flower umbrella sedge, Cyperus difformis); assay: Test B flooded paddy test; format: in vivo; conditions: Cyperus difformis, 360 h; 250 g ai/ha, Flood; visual rating on scale of 0 to 100 where 0 is no effect and 100 is complete control; 13 to 15 d after treatment; read-out: Plant response rating, Sedge, Umbrella
Procedure, shortened: as §2

With `Cc1nn(C)c(=O)c(-c2c(C)oc3ccccc23)c1O` [Compound 4, 5-hydroxy-2,6-dimethyl-4-(2-methyl-3-benzofuranyl)-3 (2H)-pyridazinone] the pest or weed control at 1000 g/ha ([1]; post-emergence, Postemergence, 0 is no effect, 100 is complete control, read-out: Barnyardgrass plant response rating) was 70%, the pest or weed control at 1000 g/ha ([1]; pre-emergence, Preemergence, 0 no effect, 100 complete control, read-out: Plant response rating, Barnyardgrass) was 100% and the plant injury at 1000 g/ha (corn (Zea mays); post-emergence, Postemergence, 0 is no effect, 100 is complete control, read-out: Corn plant response rating) was 0%. It also gave a Corn plant response rating (crop injury, 0 = no effect, 100 = complete kill) at 1000 g/ha (corn (Zea mays); pre-emergence, Preemergence, 0 no effect, 100 complete control) of 10%, a pest or weed control at 1000 g/ha ([2]; post-emergence, Postemergence, 0 is no effect, 100 is complete control, read-out: Crabgrass, Large plant response rating) of 50% and a pest or weed control at 1000 g/ha ([2]; pre-emergence, Preemergence, 0 no effect, 100 complete control, read-out: Plant response rating, Crabgrass, Large) of 80%. For the same compound, the pest or weed control at 1000 g/ha ([3]; post-emergence, Postemergence, 0 is no effect, 100 is complete control, read-out: Foxtail, Giant plant response rating) was 80%, the pest or weed control at 1000 g/ha ([3]; pre-emergence, Preemergence, 0 no effect, 100 complete control, read-out: Plant response rating, Foxtail, Giant) was 80% and the pest or weed control at 1000 g/ha ([4]; post-emergence, Postemergence, 0 is no effect, 100 is complete control, read-out: Morningglory plant response rating) was 70%. It also gave a pest or weed control at 1000 g/ha ([4]; pre-emergence, Preemergence, 0 no effect, 100 complete control, read-out: Plant response rating, Morningglory) of 60%, a pest or weed control at 1000 g/ha ([5]; post-emergence, Postemergence, 0 is no effect, 100 is complete control, read-out: Pigweed plant response rating) of 50% and a pest or weed control at 1000 g/ha ([5]; pre-emergence, Preemergence, 0 no effect, 100 complete control, read-out: Plant response rating, Pigweed) of 70%. It also gave a pest or weed control at 1000 g/ha ([6]; post-emergence, Postemergence, 0 is no effect, 100 is complete control, read-out: Velvetleaf plant response rating) of 60%, a pest or weed control at 1000 g/ha ([6]; pre-emergence, Preemergence, 0 no effect, 100 complete control, read-out: Plant response rating, Velvetleaf) of 40% and a plant injury at 1000 g/ha ([7]; post-emergence, Postemergence, 0 is no effect, 100 is complete control, read-out: Wheat plant response rating) of 0%. For the same compound, the plant injury at 1000 g/ha ([7]; pre-emergence, Preemergence, 0 no effect, 100 complete control, read-out: Plant response rating, Wheat) was 0%, the pest or weed control at 250 g/ha [8] was 0% and the pest or weed control at 250 g/ha [9] was 0%. For the same compound, the plant injury at 250 g/ha (rice (Oryza sativa)) was 0%, the pest or weed control at 250 g/ha [10] was 0% and the melting point was 238 to 240 °C.
